From patent publication US12153062B2, “Method for estimating physical property of aqueous sample” (Kao Corporation, priority 2018, dated 2024)

Legend:
Type in all cases: physicochemical
[1] = Amount of phase-changing probe 2-EHDG required until phase structure changes (Wm phase to Om phase + W phase); liquid physical property index read from calibration curve
[2] = as above; details: for Solution physical property index (corresponding HLB) from calibration curve: 100 mmol/kg
Method: (§1) Using the following components, precursor samples and standard samples for preparing calibration curves were prepared, and using any of the following phase-changing probes, an amount of the phase-changing probe required until a phase structure of a standard sample changed was quantified for each of a plurality of surfactants (G). The calibration curves were prepared from the plurality of quantitative values obtained. • Surfactant (G): a plurality of polyoxyethylene lauryl ethers with different average numbers of added moles of the ethylene oxide • Oil component: an isoparaffin with an average number of carbons of 16 (hereinafter, referred to as C16 isoparaffin) • Phase-changing probe: 2-ethylhexyl diglycol or butyldiglycol
(§2) The concentration of surfactant (G) in each precursor sample was 200 mmol/kg (the balance was water).
(§3) The amount of the oil component added per 100 g of each precursor sample was determined to be 4 g by assigning 50 to X in the aforementioned formula (I).
For this standard sample, 2-ethylhexyl diglycol (hereinafter, sometimes also referred to as 2-EHDG) was used as the phase-changing probe, and an amount of the phase-changing probe required until a phase structure of the standard sample changed from a micellar solution phase (Wm phase) to a mixed system of a reversed micellar oil solution phase (Om phase) and a water phase (W phase) was taken as the quantitative value.
(§4) Note that, in either case, the ambient temperature when the phase-changing probe was added to the standard sample was 25° C. Further, in either case, the phase-changing probe was added to the standard sample under the condition of being stirred with a magnetic stirrer.
(§5) Note that the quantitative values and HLB values were entered into spreadsheet software “Excel” (manufactured by Microsoft Corporation) to be processed, thereby obtaining the calibration curves as regression lines (calibration curves 1 and 2). Calibration curves 1 and 2 are shown in Graph A (FIG. 1).
As the oil components, components shown in Table 3 were used; as the phase-changing probe, 2-EHDG was used; and the concentration of surfactant (G) in each precursor sample was 100 mmol/kg. Note that, in this example, the amount of an oil component added per 100 g of each precursor sample was determined to be 2 g by assigning 50 to X in the aforementioned formula (I).
A measurement sample was prepared by adding 2 g of any of the oil components shown in Table 3 per 100 g of the aqueous sample.
2-EHDG as the phase-changing probe was added to the measurement sample under the same conditions as those for preparing the calibration curves, and an amount of the phase-changing probe required until a phase structure changed was quantified.

[3] = Amount of phase-changing probe BDG required until phase structure changes (Om phase + W phase to Wm phase); details: surfactant 200 mmol/kg; C16 isoparaffin 4 g per 100 g; 25° C.; for calibration curve 2
Method: as §1, §2, §3
On the other hand, in the case where an average number of added moles of the ethylene oxide of surfactant (G) was relatively small (the average number of added moles was 2 to 5), the initial phase structure of the standard sample was a mixed system of a reversed micellar oil solution phase (Om phase) and a water phase (W phase). For this standard sample, butyldiglycol (hereinafter, sometimes also referred to as BDG) was used as the phase-changing probe, and an amount of the phase-changing probe required until a phase structure of the standard sample changed from a mixed system of a reversed micellar oil solution phase (Om phase) and a water phase (W phase) to a micellar solution phase (Wm phase) was taken as the quantitative value.
as §4, §5

[4] = surfactant 100 mmol/kg, solvent BDG 5 mass %, C16 isoparaffin 2 g per 100 g, 25° C., calibration curve 10, no inorganic salt
[5] = surfactant 100 mmol/kg, solvent BDG 5 mass %, C16 isoparaffin 2 g per 100 g, no inorganic salt
[6] = surfactant 100 mmol/kg, oil component C16 isoparaffin 2 g per 100 g, calibration curve 3
[7] = surfactant 100 mmol/kg, oil component Cyclohexane 2 g per 100 g, calibration curve 7
[8] = surfactant 100 mmol/kg, oil component Decane 2 g per 100 g, calibration curve 4
[9] = surfactant 100 mmol/kg, oil component Hexadecane 2 g per 100 g, calibration curve 6
[10] = surfactant 100 mmol/kg, oil component Tetradecane 2 g per 100 g, calibration curve 5
[11] = surfactant 200 mmol/kg, C16 isoparaffin 4 g per 100 g, 25° C., for calibration curve 1
[12] = concentration of polyoxyethylene lauryl ether 5 mmol/kg, C16 isoparaffin 0.1 g per 100 g, calibration curve 8
[13] = concentration of polyoxyethylene lauryl ether 350 mmol/kg, C16 isoparaffin 7 g per 100 g, calibration curve 9

## CCCCCCCC[N+](C)(C)Cc1ccccc1.[Cl-] [Octyldimethylbenzylammonium chloride]
[1]; [4]
  Quantitative value (g) of phase-changing probe (2-EHDG): 9.20 g
[1]; [5]
  Solution physical property index (corresponding HLB) from calibration curve 10: 13.48

## polyoxyethylene lauryl ether [Polyoxyethylene lauryl ether 9]
[2]; [6]
  Quantitative value (g) of phase-changing probe (2-EHDG): 7.58 g
[2]; [7]
  Quantitative value (g) of phase-changing probe (2-EHDG): 5.84 g
[2]; [8]
  Quantitative value (g) of phase-changing probe (2-EHDG): 6.98 g
[2]; [9]
  Quantitative value (g) of phase-changing probe (2-EHDG): 7.74 g
[2]; [10]
  Quantitative value (g) of phase-changing probe (2-EHDG): 7.6 g
[2]; [11]
  Quantitative value (g) of phase-changing probe (2-EHDG): 5.38 g
[1]; [12]
  Quantitative value (g) of phase-changing probe (2-EHDG): 0.46 g
[1]; [13]
  Quantitative value (g) of phase-changing probe (2-EHDG): 9.36 g
[1]; [4]
  Quantitative value (g) of phase-changing probe (2-EHDG): 9.46 g

## Lauryl glucoside
[1]; [4]
  Quantitative value (g) of phase-changing probe (2-EHDG): 4.44 g
[1]; [5]
  Solution physical property index (corresponding HLB) from calibration curve 10: 11.48

## polyoxyethylene lauryl ether [Polyoxyethylene lauryl ether 21]
[2]; [11]
  Quantitative value (g) of phase-changing probe (2-EHDG): 11.92 g
[1]; [12]
  Quantitative value (g) of phase-changing probe (2-EHDG): 1.28 g

## CCCCC(CC)COC(=O)CC(C(=O)OCC(CC)CCCC)S(=O)(=O)[O-].[Na+] (stereo not drawn) [Sodium di-2-ethylhexylsulfosuccinate]
[1]; [4]
  Quantitative value (g) of phase-changing probe (2-EHDG): 5.50 g
[1]; [5]
  Solution physical property index (corresponding HLB) from calibration curve 10: 11.93

## CCCCCCCCCCCCCC[N+](C)(C)[O-] [Myristyl dimethylamine oxide]
[1]; [4]
  Quantitative value (g) of phase-changing probe (2-EHDG): 4.72 g
[1]; [5]
  Solution physical property index (corresponding HLB) from calibration curve 10: 11.60

## Sodium polyoxyethylene (4 moles on average) lauryl ether sulfate
[1]; [4]
  Quantitative value (g) of phase-changing probe (2-EHDG): 19.88 g
[1]; [5]
  Solution physical property index (corresponding HLB) from calibration curve 10: 17.96

## polyoxyethylene lauryl ether [Polyoxyethylene lauryl ether 4]
[3]
  Quantitative value (g) of phase-changing probe (BDG): 7.29 g
[1]; [4]
  Quantitative value (g) of phase-changing probe (2-EHDG): 1.16 g

## polyoxyethylene lauryl ether [Polyoxyethylene lauryl ether 5]
[3]
  Quantitative value (g) of phase-changing probe (BDG): 5.5 g
[1]; [4]
  Quantitative value (g) of phase-changing probe (2-EHDG): 2.12 g

## CCCCCCCCCCCCCCCC[N+](C)(C)C.[Cl-] [Palmityltrimethylammonium chloride]
[1]; [4]
  Quantitative value (g) of phase-changing probe (2-EHDG): 9.12 g
[1]; [5]
  Solution physical property index (corresponding HLB) from calibration curve 10: 13.45

## CCCCCCCCCCCC[N+](C)(C)CC(O)CS(=O)(=O)[O-] (stereo not drawn) [N-lauryl-N,N-dimethyl-N-(2-hydroxysulfopropyl)ammonium sulfobetaine]
[2]; oil component C16 isoparaffin, calibration curve 3
  Solution physical property index (corresponding HLB) from calibration curve: 11.46
[2]; oil component Decane, calibration curve 4
  Solution physical property index (corresponding HLB) from calibration curve: 11.52
[2]; oil component Hexadecane, calibration curve 6
  Solution physical property index (corresponding HLB) from calibration curve: 11.44
[2]; oil component Tetradecane, calibration curve 5
  Solution physical property index (corresponding HLB) from calibration curve: 11.47
[2]; [6]
  Quantitative value (g) of phase-changing probe (2-EHDG): 2.36 g
[2]; [7]
  Quantitative value (g) of phase-changing probe (2-EHDG): 1.15 g
[2]; [8]
  Quantitative value (g) of phase-changing probe (2-EHDG): 2.36 g
[2]; [9]
  Quantitative value (g) of phase-changing probe (2-EHDG): 2.78 g
[2]; [10]
  Quantitative value (g) of phase-changing probe (2-EHDG): 2.66 g
[1]; [4]
  Quantitative value (g) of phase-changing probe (2-EHDG): 3.60 g

## polyoxyethylene lauryl ether [Polyoxyethylene lauryl ether 3]
[3]
  Quantitative value (g) of phase-changing probe (BDG): 13.2 g

## polyoxyethylene lauryl ether [Polyoxyethylene lauryl ether 2]
[3]
  Quantitative value (g) of phase-changing probe (BDG): 18.57 g

## Sodium polyoxyethylene (2 moles on average) lauryl ether sulfate
[1]; [4]
  Quantitative value (g) of phase-changing probe (2-EHDG): 17.68 g
[1]; [5]
  Solution physical property index (corresponding HLB) from calibration curve 10: 17.04

## CCCCCCCCCCCC[N+](C)(C)C.[Cl-] [Lauryltrimethylammonium chloride]
[1]; [4]
  Quantitative value (g) of phase-changing probe (2-EHDG): 11.04 g
[1]; [5]
  Solution physical property index (corresponding HLB) from calibration curve 10: 14.25

## CCCCCCCCCCCC[N+](C)(C)Cc1ccccc1.[Cl-] [Lauryldimethylbenzylammonium chloride]
[1]; [4]
  Quantitative value (g) of phase-changing probe (2-EHDG): 10.36 g
[1]; [5]
  Solution physical property index (corresponding HLB) from calibration curve 10: 13.97

## polyoxyethylene (6 moles on average) lauryl ether [Polyoxyethylene lauryl ether 6]
[2]; [6]
  Quantitative value (g) of phase-changing probe (2-EHDG): 2.96 g
[2]; [7]
  Quantitative value (g) of phase-changing probe (2-EHDG): 1.96 g
[2]; [8]
  Quantitative value (g) of phase-changing probe (2-EHDG): 2.78 g
[2]; [9]
  Quantitative value (g) of phase-changing probe (2-EHDG): 3.4 g
[2]; [10]
  Quantitative value (g) of phase-changing probe (2-EHDG): 3.2 g
[2]; [11]
  Quantitative value (g) of phase-changing probe (2-EHDG): 1.7 g
[1]; [12]
  Quantitative value (g) of phase-changing probe (2-EHDG): 0.24 g
[1]; [13]
  Quantitative value (g) of phase-changing probe (2-EHDG): 2.44 g
[1]; [4]
  Quantitative value (g) of phase-changing probe (2-EHDG): 4.76 g

## polyoxyethylene lauryl ether [Polyoxyethylene lauryl ether 12]
[2]; [6]
  Quantitative value (g) of phase-changing probe (2-EHDG): 10.24 g
[2]; [7]
  Quantitative value (g) of phase-changing probe (2-EHDG): 8.24 g
[2]; [8]
  Quantitative value (g) of phase-changing probe (2-EHDG): 9.4 g
[2]; [9]
  Quantitative value (g) of phase-changing probe (2-EHDG): 10.24 g
[2]; [10]
  Quantitative value (g) of phase-changing probe (2-EHDG): 10.02 g
[2]; [11]
  Quantitative value (g) of phase-changing probe (2-EHDG): 7.4 g
[1]; [12]
  Quantitative value (g) of phase-changing probe (2-EHDG): 0.94 g
[1]; [13]
  Quantitative value (g) of phase-changing probe (2-EHDG): 11.76 g
[1]; [4]
  Quantitative value (g) of phase-changing probe (2-EHDG): 12.5 g
